Measured values taken from ChEMBL document CHEMBL1201862, “PubChem BioAssay data set” (2004).
Active and inactive are the calls of the source.

What was measured:
HeLa = assay: HeLa cell cytotoxicity, dose response, cytotoxicity control, 24 h, cherry-picked samples (AID 504726); assay type: functional, cell-based; settings: Homo sapiens;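 note: potency for cytotoxicity as loss of luminescence signal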
[1] = target: T1, Neuropeptides B/W receptor type 1 (Homo sapiens, UniProt P48145); assay: Fluorescence-based dose response cell-based high throughput screening assay to identify antagonists of the G-protein coupled receptor 7 (GPR7). [Related pubchem assays: 1952 (Screening assay (GPR7 antagonists).), 1880 (Summary AID.)]; assay type: functional
T1 sequence (P48145 whole entry): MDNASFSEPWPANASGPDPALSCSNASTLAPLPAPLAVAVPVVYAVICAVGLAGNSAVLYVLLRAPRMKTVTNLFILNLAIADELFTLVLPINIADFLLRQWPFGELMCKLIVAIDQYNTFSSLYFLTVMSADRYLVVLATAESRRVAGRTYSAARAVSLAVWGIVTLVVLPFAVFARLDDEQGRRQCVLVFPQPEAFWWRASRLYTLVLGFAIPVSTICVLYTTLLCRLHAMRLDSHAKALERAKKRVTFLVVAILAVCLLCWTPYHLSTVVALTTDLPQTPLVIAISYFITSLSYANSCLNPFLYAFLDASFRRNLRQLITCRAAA

[2] = target: Melanin-concentrating hormone receptor 1 (Homo sapiens, UniProt Q99705); assay: Fluorescence-based counterscreen for antagonists of the G-protein coupled receptor 7 (GPR7): cell-based high throughput dose response assay to identify antagonists of the melanin-concentrating hormone receptor 1 (MCHR1).; assay type: functional
Sequence of Melanin-concentrating hormone receptor 1 (Q99705 whole entry): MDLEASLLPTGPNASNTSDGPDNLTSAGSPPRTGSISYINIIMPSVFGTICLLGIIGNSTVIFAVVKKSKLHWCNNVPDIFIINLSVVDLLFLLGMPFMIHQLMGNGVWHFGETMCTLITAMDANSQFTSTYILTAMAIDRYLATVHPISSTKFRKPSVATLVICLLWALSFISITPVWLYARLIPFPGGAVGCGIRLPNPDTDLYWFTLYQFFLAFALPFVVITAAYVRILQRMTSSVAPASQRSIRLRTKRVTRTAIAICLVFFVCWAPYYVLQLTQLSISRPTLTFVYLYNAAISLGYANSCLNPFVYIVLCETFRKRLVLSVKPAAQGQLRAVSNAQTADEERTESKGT

Cytochrome P450 2D6 = Cytochrome P450 2D6 (Homo sapiens, UniProt P10635); assay: qHTS Assay for Inhibitors and Substrates of Cytochrome P450 2D6. [Related pubchem assays: 410 ]; assay type: ADME; settings: read-out: Potency
Sequence of Cytochrome P450 2D6 (P10635 whole entry): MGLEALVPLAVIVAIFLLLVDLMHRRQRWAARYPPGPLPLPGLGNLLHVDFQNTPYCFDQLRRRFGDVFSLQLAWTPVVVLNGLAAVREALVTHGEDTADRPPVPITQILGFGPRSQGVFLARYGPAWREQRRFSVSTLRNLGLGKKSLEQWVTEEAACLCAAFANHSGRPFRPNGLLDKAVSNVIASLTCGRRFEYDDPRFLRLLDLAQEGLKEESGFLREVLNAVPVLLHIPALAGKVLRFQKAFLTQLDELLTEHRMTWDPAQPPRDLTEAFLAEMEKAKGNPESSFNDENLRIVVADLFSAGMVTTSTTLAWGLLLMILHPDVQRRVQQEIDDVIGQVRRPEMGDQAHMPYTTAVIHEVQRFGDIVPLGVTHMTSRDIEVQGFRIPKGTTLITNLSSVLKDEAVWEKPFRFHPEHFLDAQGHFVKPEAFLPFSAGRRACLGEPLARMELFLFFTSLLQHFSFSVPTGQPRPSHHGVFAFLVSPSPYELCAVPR

IC50 [1]	IC50 [2]	AC50 (Cytochrome P450 2D6)	SMILES	AC50 (HeLa)
			O=C(/C=C/c1ccco1)Nc1ccccc1C(=O)Nc1cccc(C(=O)O)c1	180 µM (active)
> 43.8 µM (not active)	> 43.8 µM (not active)		COc1ccc(OC)c(NS(=O)(=O)c2c(C(=O)N3CCCCCC3)c(C)n(C)c2C)c1	
> 43.8 µM (not active)	158 µM (not active)		N=c1c(C(=O)NCCc2ccccc2)cc2c(=O)n3ccccc3nc2n1CC1CCCO1 (configuration not stated)	
		3.16 µM (inconclusive)	C=C(C)C(O)/C=C/c1ccc(Br)cc1 (configuration not stated)	
		3.16 µM (inconclusive)	COC(=O)C1C(C)OC(=O)NC1c1ccccc1 (configuration not stated)	
